{"source": "patent US20230364032A1", "about": "“USE OF 2-HOBA TO TREAT ATHEROSCLEROSIS” (Vanderbilt University, priority 2020, published 2023)", "key": {"[1]": {"tested_on": "atherosclerotic lesions of Ldlr−/− mice", "assay": "Masson's Trichrome staining of lesions (collagen, fibrous cap, necrotic area)", "type": "in vivo, mouse", "description": "Masson's Trichrome Staining was applied for measurement of atherosclerotic lesion collagen content, fibrous cap thickness and necrotic core size following the manufacturer's instructions (Sigma) and as previously described^30. Briefly, 5 μm cross-sections of proximal atherosclerotic aorta root were fixed with Bouin's solution, stained with hematoxylin for nuclei (black) and biebrich scarlet and phosphotungstic/phosphomolybdic acid for cytoplasm (red), and aniline blue for collagen (blue). Images were captured and analyzed for collagen content, atherosclerotic cap thickness and necrotic core by ImageJ software as described previously^30. The necrotic area is normalized to the total lesion area and is expressed as the % necrotic area."}, "[2]": {"tested_on": "peritoneal macrophages", "assay": "Macrophage cytokine mRNA by real time PCR (oxidized LDL or H2O2)", "type": "cell-based, mouse", "protocol": "[…] Apoptotic cells were then detected by Annexin V staining and flow cytometry. […] (6A to 6H) Data are presented as mean±SEM from three independent experiments, ***p<0.001, One-way ANOVA with Bonferroni's post hoc test.\nTotal RNA was isolated and purified, cDNA was synthesized, and the mRNA levels of IL-1β, IL-6 and TNF-α were measured by real-time PCR. The data are from three independent experiments. *p<0.05, **p<0.01, ***p<0.001, One-way ANOVA (Bonferroni's post hoc test).\nTotal RNA was extracted and purified using Aurum Total RNA kit (Bio-Rad) according to the manufacturer's protocol. Complementary DNA was synthesized with iScript reverse transcriptase (Bio-Rad). Relative quantitation of the target mRNA was performed using specific primers, SYBR probe (Bio-Rad), and iTaqDNA polymerase (Bio-Rad) on IQ5 Thermocylcer (Bio-Rad) and normalized with 18S, as described earlier. 18S, IL-1[…] and TNF-[…] primers used were as described earlier^67."}, "[3]": {"tested_on": "cyclooxygenase (COX)", "assay": "Urinary prostaglandin metabolites (LC/MS)", "type": "in vivo, mouse", "protocol": "The urine samples were collected in metabolic cages with 2 mice per cage after 12 weeks of treatment with 2-HOBA or water. The contents of PGE-M (20A), tetranor PGD-M (20B), 2,3-dinor-6-keto-PGF1 (20C) and 11-dehydro TxB2 (20D) were analyzed by LC/MS/MS. (20A-20D) Mean±SEM shown for each, N.S., Mann-Whitney Test.\nConcentrations of PGE-M, tetranor PGD-M, 11-dehydro-TxB^2 (TxB-M) and PGI-M in urine were measured in the Eicosanoid Core Laboratory at Vanderbilt University Medical Center. Urine (1 mL) was acidified to pH 3 with HCl. [^2H4]-2,3-dinor-6-keto-PGF1a (internal standard for PGI-M quantification) and [^2H4]-11-dehydro-TxB2 were added, and the sample was treated with methyloxime HCl to convert analytes to the O-methyloxime derivative. The derivatized analytes were extracted using a C-18 Sep-Pak (Waters Corp. Milford, MA USA) and eluted with ethyl acetate as previously described^68. A [^2H6]—O-methyloxime PGE-M deuterated internal standard was then added for PGE-M and PGD-M quantification. The sample was dried under a stream of dry nitrogen at 37° C. and then reconstituted in 75 μL mobile phase A for LC/MS analysis.\nLC was performed on a 2.0×50 mm, 1.7 μm particle Acquity BEH C18 column (Waters Corporation, Milford, MA, USA) using a Waters Acquity UPLC. […]\nUrinary creatinine levels are measured using a test kit from Enzo Life Sciences. […]"}}, "note": "Entries after “also recorded” stand apart in the source; their conditions may differ.", "data": [{"smiles": "NCc1ccccc1O", "note": "[2-HOBA, 2-hydroxybenzylamine]", "values": [{"measurement": "features of stable atherosclerotic plaques", "setting": "[1]", "result": "promotes features of stable atherosclerotic plaques"}, {"measurement": "increase of collagen content of the proximal aorta", "setting": "[1]; compared to 4-HOBA", "result": 2.6, "unit": "fold"}, {"measurement": "increase of collagen content of the proximal aorta", "setting": "[1]; compared to vehicle", "result": 2.7, "unit": "fold"}, {"measurement": "decrease of % of necrotic area in the proximal aorta", "setting": "[1]; versus 4-HOBA", "result": 73.5, "unit": "%"}, {"measurement": "fibrous cap thickness, fold greater", "setting": "[1]; versus 4-HOBA", "result": 2.29, "unit": "fold"}, {"measurement": "levels of IL-1β, IL-6, and TNF-α mRNA", "setting": "[2]; 500 μM 2-HOBA in the presence of H2O2 (100 μM, 24 hours)", "result": "significantly reduced"}, {"measurement": "macrophage inflammatory response: mRNA levels of IL-1β, IL-6, and TNF-α", "setting": "[2]; oxidized LDL, 24 h, 500 μM", "result": "significantly reduced"}, {"measurement": "levels of major urinary prostaglandin metabolites (2,3-dinor-6-keto-PGF1, 11-dehydro TxB2, PGE-M, PGD-M)", "setting": "[3]; Ldlr−/− mice, compared to the vehicle control", "result": "no significant differences; also recorded: did not impact"}, {"measurement": "inhibition of COX in vivo", "setting": "[3]; mice", "result": "not significantly inhibiting COX"}]}]}
